Measured values published in patent US20080146555A1, “Uses of Kinase Inhibitors and Compositions Thereof” (GPC Biotech, Inc, priority 2004, published 2008).
Structures can show the parent of a compound that is named as a salt. Where two headings read alike, the source gives them in different places.

Columns and labels:
[1] = molecular target: Cdk6 (Homo sapiens, UniProt Q00534); experiment: Cdk6 inhibition; type: biochemical
Text: (§1) Further inhibition results for subject compounds of the invention against other CDKs and further kinases are shown in Table 5, Table II and described in Example 6.
(§2) Table 3, Table 4, Table 5 and Table II show the results obtained for inhibition of a broad range of such kinases for subject compounds of the invention.

[2] = molecular target: Cdk7 (Homo sapiens, UniProt P50613); experiment: Cdk7 inhibition; type: biochemical
Text: as §1, §2

[3] = molecular target: T1, GSK3β (Homo sapiens, UniProt P49841); experiment: GSK3β kinase assay; type: biochemical
T1 construct: purchased Upstate 14-306
Procedure: • 1. Reaction Buffer: 8 mM MOPS, pH 7.0, 0.2 mM EDTA, 110 mM magnesium acetate. • 2. GSK3β, active: 5-40 ng per assay point. Dilute to 0.5-4 ng/μl in Reaction Buffer containing 0.03% Brij-35. • 3. Phospho-Glycogen Synthase Peptide-2 (Catalog #12-241): Prepare a 250 μM stock. Use 10 μl per assay point for a final assay concentration of 62.5 μM per assay point. • 4. [γ-^32P]ATP: Stock 1 mCi/100 μl (3000 Ci/mmol, obtained from Perkin Elmer, Cat. # BLU002A). Make 10 μl aliquots (100 μCi/vial). Before starting the assay, dilute an aliquot to 1 μCi/μl with 90 μl of 75 mM magnesium chloride and 500 μM unlabeled ATP in 20 mM MOPS, pH 7.2, 25 mM β-glycerol phosphate, 5 mM EGTA, 1 mM sodium orthovanadate, 1 mM dithiothreitol.
• 1. Add 10 μl of Reaction Buffer per assay. • 2. Add 10 μl of substrate peptide [final assay concentration of 62.5 μM]. • 3. Add 10 μl of GSK3β, active [5-40 ng per assay]. • 4. Add 10 μl of the diluted [^32P]ATP mixture. • 5. Incubate for 30 minutes at 30° C. • 6. Spot 25 μl onto the center of a 2 cm×2 cm P81 paper square. • 7. Wash the assay squares five times with 0.75% phosphoric acid. • 8. Wash the assay squares once with acetone. • 9. Transfer the assay squares to vial and add 5 ml scintillation cocktail. • 10. Read in scintillation counter. Compare cpm of enzyme samples to cpm of control samples that contain no enzyme (background control).

[4] = molecular target: T2, AMPK; experiment: AMPK kinase assay; type: biochemical, rat
T2 construct: purified from rat-human # = U06454
Procedure: • 1. AMPK Reaction Buffer: 20 mM HEPES-NaOH, pH 7.0, 0.4 mM dithiothreitol, 0.01% Brij-35, with or without 300 μM AMP. • 2. SAMS Substrate Peptide (Catalog #12-355): Use 7 μl per reaction for final assay concentration of 100 μM. • 3. AMP-Activated Protein Kinase: Dilute enzyme to 2-10 mU/μl in AMPK Reaction Buffer with or without 300 μM AMP. AMP can be purchased from Sigma-Aldrich, Catalog #A1752. • 4. [γ-^32P]ATP: Stock 1 mCi/100 μl (3000 Ci/mmol, obtained from PerkinElmer, Cat. # BLU002A). Make 10 μl aliquots (100 μCi/vial). […]
• NOTE: Negative controls should be run with all reagents containing no AMP. • 1. Add 13 μl of Reaction Buffer per assay. • 2. Add 7 μl of SAMS substrate peptide [100 μM final assay concentration]. • 3. Add 10 μl of AMP-Activated Protein Kinase [20-100 mU]. • 4. Add 10 μl of the diluted [^32P]ATP mixture. • 5. Incubate for 15 minutes at 30° C. in a shaking incubator. • 6. Spot 35 μl onto the center of a 2 cm×2 cm P81 paper square. • 7. Wash the assay squares three times with 0.75% phosphoric acid for 5 minutes. • 8. Wash the assay squares once with acetone for 5 minutes. • 9. Transfer the assay squares to vial and add 5 ml scintillation cocktail. • 10. Read in scintillation counter. Compare cpm of enzyme samples to cpm of control samples that contain no enzyme (background control).

[5] = molecular target: T3, c-Src (Homo sapiens, UniProt P12931); experiment: c-Src kinase assay; type: biochemical
T3 construct: purchased Upstate 14-326
Procedure: • 1. Src Kinase Reaction Buffer (SrcRB), Catalog #20-121: 100 mM Tris-HCl, pH 7.2, 125 mM MgCl2, 25 mM MnCl2, 2 mM EGTA, 0.25 mM sodium ortovanadate, 2 mM dithiothreitol. • 2. [γ-^32P]ATP: Stock 1 mCi/100 μl (3000 Ci/mmol, obtained from DuPont-NEN). Make 10 μl aliquots (100 μCi/vial). Before starting the assay dilute an aliquot to 1 μCi/μl with 90 μl of 500 μM unlabeled ATP containing 75 mM MnCl2 20 mM MOPS, pH 7.2, 25 mM β-glycerophosphate, 5 mM EGTA, 1 mM Na3VO4, 1 mM dithiothreitol. • 3. Src Kinase Substrate Peptide (Catalog #12-140): Use a 0.6-1.5 mM stock. Rehydrate 1 mg peptide with […] distilled water or SrcRB for a 1.5 mM stock or with 998 μl for a 0.6 mM stock. • 4. Src, active: Use 20-80 Units per assay point. Dilute as required with SrcRB.
• 1. Add 10 μl of SrcRB into a microfage tube. • 2. Add 10 μl Src Kinase substrate peptide (93-375 μM/assay). • 3. Add 4-16 μl of Src, active (20-80 Units/assay). • 4. Add 10 μl of the diluted [γ-^32P]ATP. • 5. Incubate for 10 minutes at 30° C. • 6. Add 20 μl of 40% TCA and incubate for 5 minutes at room temperature. • 7. Transfer 25 μl to the center of a 2 cm×2 cm P81 paper square. • 8. Wash the assay squares five times for 5 minutes each with 0.75% phosphoric acid. • 9. Wash the assay squares once with acetone for 5 minutes. • 10. Transfer the assay squares to a scintillation vial and add 5 ml scintillation cocktail. • 11. Read in scintillation counter. Compare cpm of enzyme samples to cpm of control samples that contain no enzyme (background control).

[6] = system: A129 cp80; experiment: SRB cytotoxicity, cisplatin resistant cells; type: cell-based, human; settings: for IC50: Homo sapiens, 72 h, SRB
[7] = kinase panel, 10 μM ATP, read-out: GSK3β IC50
[8] = read-out: GSK3B Inhibition (IC50)
[9] = enzyme purified from rat, read-out: PRKAA2 (AMPK) Inhibition (IC50)
[10] = read-out: SRC Inhibition (IC50)

T1 sequence (P49841 whole entry): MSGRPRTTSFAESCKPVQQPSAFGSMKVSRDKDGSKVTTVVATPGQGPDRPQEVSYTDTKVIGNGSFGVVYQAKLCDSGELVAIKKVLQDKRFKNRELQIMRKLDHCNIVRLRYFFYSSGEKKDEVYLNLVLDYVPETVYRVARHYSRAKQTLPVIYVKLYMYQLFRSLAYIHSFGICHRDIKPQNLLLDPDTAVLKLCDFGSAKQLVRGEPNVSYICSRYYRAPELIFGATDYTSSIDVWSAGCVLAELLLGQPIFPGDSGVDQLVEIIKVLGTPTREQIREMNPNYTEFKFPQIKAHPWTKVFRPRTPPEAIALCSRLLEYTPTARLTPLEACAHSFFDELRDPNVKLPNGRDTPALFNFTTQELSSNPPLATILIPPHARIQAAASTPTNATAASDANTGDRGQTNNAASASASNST
T3 sequence (P12931 whole entry): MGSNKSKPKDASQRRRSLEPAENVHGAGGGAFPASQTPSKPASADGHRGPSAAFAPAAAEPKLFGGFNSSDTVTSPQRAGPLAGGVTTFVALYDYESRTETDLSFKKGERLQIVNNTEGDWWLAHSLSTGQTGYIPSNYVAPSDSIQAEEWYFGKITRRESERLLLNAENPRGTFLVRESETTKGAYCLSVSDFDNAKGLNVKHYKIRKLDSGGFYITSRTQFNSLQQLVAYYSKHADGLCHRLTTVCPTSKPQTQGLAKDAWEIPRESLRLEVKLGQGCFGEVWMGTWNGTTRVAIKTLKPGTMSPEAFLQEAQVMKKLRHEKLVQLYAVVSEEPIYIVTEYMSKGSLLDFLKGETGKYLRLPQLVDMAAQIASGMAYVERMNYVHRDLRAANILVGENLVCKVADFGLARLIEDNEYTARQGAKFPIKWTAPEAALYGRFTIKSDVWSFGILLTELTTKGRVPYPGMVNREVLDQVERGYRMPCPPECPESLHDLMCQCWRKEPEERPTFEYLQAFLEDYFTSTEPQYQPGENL
Cdk6, sequence (Q00534 whole entry): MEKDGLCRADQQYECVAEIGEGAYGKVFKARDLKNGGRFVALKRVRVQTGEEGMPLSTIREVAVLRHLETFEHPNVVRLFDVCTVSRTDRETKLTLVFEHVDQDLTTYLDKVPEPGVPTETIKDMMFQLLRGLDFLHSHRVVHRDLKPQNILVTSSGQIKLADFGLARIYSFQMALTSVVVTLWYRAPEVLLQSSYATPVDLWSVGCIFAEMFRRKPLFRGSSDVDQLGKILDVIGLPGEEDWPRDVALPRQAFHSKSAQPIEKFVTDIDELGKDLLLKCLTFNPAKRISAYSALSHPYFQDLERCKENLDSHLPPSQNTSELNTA
Cdk6, sequence (P30279 whole entry partner): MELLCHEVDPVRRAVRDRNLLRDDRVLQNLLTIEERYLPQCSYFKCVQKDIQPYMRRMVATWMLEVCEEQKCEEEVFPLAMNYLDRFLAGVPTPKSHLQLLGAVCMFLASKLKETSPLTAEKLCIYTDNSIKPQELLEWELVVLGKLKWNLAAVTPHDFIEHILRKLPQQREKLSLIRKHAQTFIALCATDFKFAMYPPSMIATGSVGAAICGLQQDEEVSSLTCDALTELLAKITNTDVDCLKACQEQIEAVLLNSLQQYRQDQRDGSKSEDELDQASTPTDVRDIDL
Cdk7, sequence (P50613 whole entry, species assumed): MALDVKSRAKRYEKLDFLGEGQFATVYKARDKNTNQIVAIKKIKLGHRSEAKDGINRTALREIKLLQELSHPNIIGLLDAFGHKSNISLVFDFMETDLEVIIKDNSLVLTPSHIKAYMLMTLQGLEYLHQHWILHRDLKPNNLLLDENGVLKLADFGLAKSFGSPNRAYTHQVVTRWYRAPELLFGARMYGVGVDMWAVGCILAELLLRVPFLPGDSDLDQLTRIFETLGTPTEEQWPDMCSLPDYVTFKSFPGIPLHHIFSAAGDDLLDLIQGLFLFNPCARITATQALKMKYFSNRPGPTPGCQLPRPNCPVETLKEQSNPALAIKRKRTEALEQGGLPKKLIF
Cdk7, sequence (P51946 whole entry partner, species assumed): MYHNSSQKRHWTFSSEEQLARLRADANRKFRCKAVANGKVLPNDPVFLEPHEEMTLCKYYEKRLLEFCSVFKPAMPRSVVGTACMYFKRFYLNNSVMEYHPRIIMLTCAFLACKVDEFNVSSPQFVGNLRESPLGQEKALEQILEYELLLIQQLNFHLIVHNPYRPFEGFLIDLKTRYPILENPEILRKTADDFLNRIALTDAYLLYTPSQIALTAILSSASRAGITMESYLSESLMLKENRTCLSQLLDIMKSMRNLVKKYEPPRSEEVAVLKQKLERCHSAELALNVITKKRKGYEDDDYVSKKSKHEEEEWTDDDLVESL
Cdk7, sequence (P51948 whole entry partner, species assumed): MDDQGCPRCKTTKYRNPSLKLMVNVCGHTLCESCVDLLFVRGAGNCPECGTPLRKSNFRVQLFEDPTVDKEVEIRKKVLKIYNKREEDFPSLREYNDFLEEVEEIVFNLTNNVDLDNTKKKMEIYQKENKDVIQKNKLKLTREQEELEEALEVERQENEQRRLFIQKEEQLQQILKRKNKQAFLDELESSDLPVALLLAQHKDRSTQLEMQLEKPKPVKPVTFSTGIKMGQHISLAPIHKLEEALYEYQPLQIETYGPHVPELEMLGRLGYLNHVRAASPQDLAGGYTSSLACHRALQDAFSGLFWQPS

Row | Compound | IC50 [1] | IC50 [2] | IC50 [3, 7] | IC50 [3, 8] | IC50 [4, 9] | IC50 [5, 10] | RR (relative resistance) A129 cp80 vs A129 [6] | IC50 [6] | IC50 ([4]; kinase panel, 10 μM ATP, read-out: AMPK IC50) | IC50 ([5]; kinase panel, 10 μM ATP, read-out: c-Src IC50)
1 | CC(C)N1CCN(C(=O)COc2ccc(-c3n[nH]c4c3C(=O)c3c(NC(=O)NN5CCOCC5)cccc3-4)cc2)CC1 [Compound A37] | < 100 nM | < 500 nM | < 3 nM | < 5 nM | < 100 nM | < 50 nM | 0.7 | 4 nM |  | 
2 | COCCN1CCN(Cc2ccc(-c3n[nH]c4c3C(=O)c3c(NC(=O)NN5CCOCC5)cccc3-4)cc2)CC1 [Compound B16, N-[3-(4-{[4-(2-methoxyethyl)piperazinyl]methyl}phenyl)-4-oxoindeno[2,3-d]pyrazol-5-yl](morpholin-4-ylamino)carboxamide dihydrochloride] | < 50 nM | < 50 nM | < 100 nM | < 5 nM | < 50 nM | < 50 nM | 0.5 | 4.7 nM | < 100 nM | < 100 nM
